Values of other authors, collected in patent publication US12414981B2, “JNK inhibitors for use in treating and preventing neurodegenerative disorders” (Northwestern University, priority 2021, dated 2025).

Conditions: in vivo

SMILES: Oc1c2ccccc2c2c3c(cccc13)N=N2 [SP600125, anthra [1,9]pyrazol-6 (2H)-one]
- crosses the blood-brain barrier: crosses the blood-brain barrier
